According to patent US10597388B2, “Pyridazinone herbicides” (FMC CORPORATION, priority 2014, dated 2020):

What was measured:
Format in all cases: in vivo
[1] = tested on: barley, winter (winter barley, Hordeum vulgare); assay: Test D controlled growth environment herbicide test, pre- and postemergence
From the text: (§1) Seeds of plant species selected from bluegrass (annual bluegrass, Poa annua), blackgrass (Alopecurus myosuroides), Canada thistle (Cirsium arvense), canarygrass (Phalaris minor), chickweed (common chickweed, Stellaria media), geranium, cutleaf (cutleaf geranium, Geranium dissectum), galium (catchweed bedstraw, Galium aparine), bromegrass, downy (downy bromegrass, Bromus tectorum), field poppy (Papaver rhoeas), field violet (Viola arvensis), foxtail, green (green foxtail, Setaria viridis), deadnettle (henbit deadnettle, Lamium amplexicaule), ryegrass, Italian (Italian ryegrass, Lolium multiflorum), kochia (Kochia scoparia), lambsquarters (Chenopodium album), oilseed rape (Brassica napus), pigweed (Amaranthus retroflexus), chamomile (scentless chamomile, Matricaria inodora), Russian thistle (Salsola kali), speedwell (bird's-eye speedwell, Veronica persica), barley, spring (spring barley, Hordeum vulgare), wheat, spring (spring wheat, Triticum aestivum), buckwheat, wild (wild buckwheat, Polygonum convolvulus), mustard, wild (wild mustard, Sinapis arvensis), oat, wild (wild oat, Avena fatua), radish, wild (wild radish, Raphanus raphanistrum), windgrass (Apera spica-venti), barley, winter (winter barley, Hordeum vulgare), and wheat, winter (winter wheat, Triticum aestivum) were planted into a silt loam soil and treated preemergence with test chemicals formulated in a non-phytotoxic solvent mixture which included a surfactant.
(§2) At the same time, these species were planted in pots containing Redi-Earth® planting medium (Scotts Company, 14111 Scottslawn Road, Marysville, Ohio 43041) comprising spaghnum peat moss, vermiculite, wetting agent and starter nutrients and treated with postemergence applications of the test chemicals formulated in the same manner. Plants ranged in height from 2 to 18 cm (1- to 4-leaf stage). Treated plants and controls were maintained in a controlled growth environment for 14 to 21 d after which time all species were compared to controls and visually evaluated. Plant response ratings, summarized in Table D, are based on a scale of 0 to 100 where 0 is no effect and 100 is complete control. A dash (-) response means no test result.

[2] = tested on: foxtail, green (green foxtail, Setaria viridis); assay: as above
From the text: as §1, §2

[3] = tested on: windgrass (Apera spica-venti); assay: as above
From the text: as §1, §2

[4] = tested on: lambsquarters (Chenopodium album); assay: as above
From the text: as §1, §2

[5] = tested on: mustard, wild (wild mustard, Sinapis arvensis); assay: as above
From the text: as §1, §2

[6] = tested on: radish, wild (wild radish, Raphanus raphanistrum); assay: as above
From the text: as §1, §2

[7] = tested on: chamomile (scentless chamomile, Matricaria inodora); assay: as above
From the text: as §1, §2

[8] = tested on: deadnettle (henbit deadnettle, Lamium amplexicaule); assay: as above
From the text: as §1, §2

[9] = tested on: field poppy (Papaver rhoeas); assay: as above
From the text: as §1, §2

[10] = tested on: blackgrass (Alopecurus myosuroides); assay: as above
From the text: as §1, §2

[11] = tested on: waterhemp_RES2 (ALS & HPPD resistant common waterhemp, Amaranthus rudis); assay: Test E greenhouse herbicide test, postemergence
Summary of the method: (§3)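 Formulated compounds are applied postemergence to potted waterhemp at 1–4 leaves (2–18 cm high). Plants stay in the greenhouse for 14 to 21 d before visual comparison with controls, and control is scored from 0 (none) to 100 (complete).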

[12] = tested on: waterhemp_RES1 (ALS & Triazine resistant common waterhemp, Amaranthus rudis); assay: Test E greenhouse herbicide test, postemergence
Summary of the method: as §3

[13] = Postemergence, 31 g ai/ha, scale 0 to 100 (0 no effect, 100 complete control)
[14] = Postemergence, 125 g ai/ha, visual rating on scale 0 (no effect) to 100 (complete control), 14 to 21 d
[15] = Postemergence, 250 g ai/ha, scale 0 to 100 (0 no effect, 100 complete control)
[16] = Preemergence, 62 g ai/ha, scale 0 to 100 (0 no effect, 100 complete control)
[17] = Preemergence, 125 g ai/ha, scale 0 to 100 (0 no effect, 100 complete control)
[18] = Preemergence, 250 g ai/ha, scale 0 to 100, 0 no effect, 100 complete control
[19] = postemergence, 62 g ai/ha, scale 0 to 100, 0 no effect, 100 complete control
[20] = 31 g ai/ha, visual, scale 0 no effect to 100 complete control
[21] = 62 g ai/ha, scale 0 to 100 (0 no effect, 100 complete control)
[22] = 125 g ai/ha, scale 0 to 100 (0 no effect, 100 complete control)
[23] = 250 g ai/ha, scale 0 to 100 (0 no effect, 100 complete control)

Compound: Cc1nn(C)c(=O)c(-c2ccc(F)c3ccccc23)c1O [Compound 41]
- Plant response rating, Barley, Winter [1, 13]: 0
- Plant response rating, Barley, Winter [1, 14]: 5
- Plant response rating, Barley, Winter [1, 15]: 35
- Plant response rating (scale of 0 to 100), Barley, Winter ([1]; Preemergence, 31 g ai/ha): 0
- Plant response rating, Barley, Winter [1, 16]: 20
- Plant response rating, Barley, Winter [1, 17]: 25
- Barley, Winter plant response rating [1, 18]: 30
- Plant response rating, Barley, Winter [1, 19]: 5
- Foxtail, Green plant response rating [2, 13]: 45
- Plant response rating, Foxtail, Green [2, 14]: 50
- Plant response rating, Foxtail, Green [2, 15]: 65
- Plant response rating (scale of 0 to 100), Foxtail, Green ([2]; Preemergence, 31 g ai/ha): 45
- Plant response rating, Foxtail, Green [2, 16]: 80
- Plant response rating, Foxtail, Green [2, 17]: 100
- Plant response rating, Foxtail, Green [2, 18]: 100
- Plant response rating, Foxtail, Green [2, 19]: 55
- Windgrass plant response rating [3, 13]: 40
- Plant response rating, Windgrass [3, 14]: 60
- Plant response rating, Windgrass [3, 15]: 75
- Plant response rating (scale of 0 to 100), Windgrass ([3]; Preemergence, 31 g ai/ha): 70
- Plant response rating, Windgrass [3, 16]: 75
- Plant response rating, Windgrass [3, 17]: 80
- Plant response rating, Windgrass [3, 18]: 95
- Plant response rating, Windgrass [3, 19]: 55
- Lambsquarters plant response rating [4, 13]: 70
- Plant response rating, Lambsquarters [4, 14]: 75
- Plant response rating, Lambsquarters [4, 15]: 85
- Plant response rating (scale of 0 to 100), Lambsquarters ([4]; Preemergence, 31 g ai/ha): 25
- Plant response rating, Lambsquarters [4, 16]: 100
- Plant response rating, Lambsquarters [4, 17]: 100
- Plant response rating, Lambsquarters [4, 18]: 100
- Plant response rating, Lambsquarters [4, 19]: 65
- Mustard, Wild plant response rating [5, 13]: 90
- Plant response rating, Mustard, Wild [5, 14]: 100
- Plant response rating, Mustard, Wild [5, 15]: 100
- Plant response rating (scale of 0 to 100), Mustard, Wild ([5]; Preemergence, 31 g ai/ha): 70
- Plant response rating, Mustard, Wild [5, 16]: 90
- Plant response rating, Mustard, Wild [5, 17]: 95
- Plant response rating, Mustard, Wild [5, 18]: 95
- Plant response rating, Mustard, Wild [5, 19]: 100
- Radish, Wild plant response rating [6, 13]: 90
- Plant response rating, Radish, Wild [6, 14]: 90
- Plant response rating, Radish, Wild [6, 15]: 95
- Plant response rating (scale of 0 to 100), Radish, Wild ([6]; Preemergence, 31 g ai/ha): 25
- Plant response rating, Radish, Wild [6, 16]: 85
- Plant response rating, Radish, Wild [6, 17]: 95
- Plant response rating, Radish, Wild [6, 18]: 100
- Plant response rating, Radish, Wild [6, 19]: 80
- Chamomile plant response rating [7, 13]: 75
- Plant response rating, Chamomile [7, 14]: 80
- Plant response rating, Chamomile [7, 15]: 100
- Plant response rating, Chamomile [7, 19]: 75
- Deadnettle plant response rating [8, 13]: 85
- Plant response rating, Deadnettle [8, 14]: 80
- Plant response rating, Deadnettle [8, 15]: 100
- Plant response rating (scale of 0 to 100), Deadnettle ([8]; Preemergence, 31 g ai/ha): 35
- Plant response rating, Deadnettle [8, 16]: 90
- Plant response rating, Deadnettle [8, 17]: 100
- Plant response rating, Deadnettle [8, 18]: 100
- Plant response rating, Deadnettle [8, 19]: 100
- Field Poppy plant response rating [9, 13]: 55
- Plant response rating, Field Poppy [9, 14]: 75
- Plant response rating, Field Poppy [9, 15]: 95
- Plant response rating (scale of 0 to 100), Field Poppy ([9]; Preemergence, 31 g ai/ha): 95
- Plant response rating, Field Poppy [9, 16]: 95
- Plant response rating, Field Poppy [9, 18]: 95
- Plant response rating, Field Poppy [9, 19]: 80
- Blackgrass plant response rating [10, 13]: 55
- Plant response rating, Blackgrass [10, 14]: 70
- Plant response rating, Blackgrass [10, 15]: 75
- Plant response rating (scale of 0 to 100), Blackgrass ([10]; Preemergence, 31 g ai/ha): 70
- Plant response rating, Blackgrass [10, 16]: 75
- Plant response rating, Blackgrass [10, 17]: 80
- Blackgrass plant response rating [10, 18]: 80
- Plant response rating, Blackgrass [10, 19]: 65
- Plant response rating, Waterhemp_RES2 [11, 20]: 20
- Plant response rating, Waterhemp_RES2 [11, 21]: 80
- Plant response rating, Waterhemp_RES2 [11, 22]: 80
- Plant response rating, Waterhemp_RES2 [11, 23]: 85
- Plant response rating, Waterhemp_RES1 [12, 20]: 75
- Plant response rating, Waterhemp_RES1 [12, 21]: 75
- Plant response rating, Waterhemp_RES1 [12, 22]: 90
- Plant response rating, Waterhemp_RES1 [12, 23]: 95
